This note sets out measurements from patent publication US11053219B2, “Substituted pyridines as TYK2 inhibitors” (FronThera U.S. Pharmaceuticals LLC, priority 2018, dated 2021).

The target of one assay is TYK2 (JH2 domain) (Homo sapiens (Human), UniProt P29597). As to the kind of experiment: TYK2 JH2 domain binding assay (DiscoverX KINOMEscan). To be noted: 11-point 3-fold dilution, duplicate.
Assay [1] relates to INFα induced pSTAT5 in human PBMC. As to the kind of experiment: INFα induced pSTAT5 in human PBMC. To be noted: read-out: p-STAT5 IC50. The assay is classed as cell-based.

Like-named read-outs stand apart in the source and are kept apart here.

Chain of TYK2 (JH2 domain) (P29597 589-875): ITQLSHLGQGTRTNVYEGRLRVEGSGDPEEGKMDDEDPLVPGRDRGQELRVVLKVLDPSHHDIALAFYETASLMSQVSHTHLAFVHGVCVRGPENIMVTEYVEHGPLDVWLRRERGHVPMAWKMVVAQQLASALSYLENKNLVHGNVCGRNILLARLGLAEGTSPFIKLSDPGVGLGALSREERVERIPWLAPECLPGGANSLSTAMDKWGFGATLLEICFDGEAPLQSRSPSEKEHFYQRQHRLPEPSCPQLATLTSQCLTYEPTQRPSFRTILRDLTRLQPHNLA
Protocol for TYK2 (JH2 domain): The assay is performed by combining three components: DNA-tagged kinase; immobilized ligand; and a test compound. The ability of the test compound to compete with the immobilized ligand is measured via quantitative PCR of the DNA tag.
The liganded beads were blocked with excess biotin and washed with blocking buffer (SeaBlock (Pierce), 1% BSA, 0.05% Tween 20, 1 mM DTT) to remove unbound ligand and to reduce non-specific binding. […] Test compounds were prepared as 111× stocks in 100% DMSO. All test compounds were shipped to DiscoverX in DMSO with concentration of 10 mM. Kds were determined using an 11-point 3-fold compound dilution series with three DMSO control points. Each compound was tested in duplicate. […] The compounds were then diluted directly into the assays such that the final concentration of DMSO was 0.9%. All reactions performed in polypropylene 384-well plate. Each was a final volume of 0.02 ml. […] The kinase concentration in the eluates was measured by qPCR.
The amount of kinase measured by qPCR (Signal; y-axis) is plotted against the corresponding compound concentration in nM in log 10 scale (x-axis). Binding constants (Kds) were calculated with a standard dose-response curve using the Hill equation:
The Hill Slope was set to −1.
Curves were fitted using anon-linear least square fit with the Levenberg-Marquardt algorithm.

As for `COc1c(Nc2cc(N3CCN(C(C)C)C3=O)ncc2C(=O)C2CC2)cccc1-c1ncn(C)n1` [Example 35], the Kd at TYK2 (JH2 domain) was ≤ 1 nM.

On to `[2H]C([2H])([2H])NC(=O)c1nnc(/C=C/C2CC2)cc1Nc1cccc(-c2ncn(C)n2)c1OC` [Example 45], for which the dissociation constant Kd at TYK2 (JH2 domain) was ≤ 1 nM.

Regarding `COc1c(Nc2cc(Cl)nnc2C(=O)C(F)F)cccc1-c1ncn(C)n1` [Example 46], on TYK2 (JH2 domain), the Kd is ≤ 1 nM.

As for `[2H]C([2H])([2H])NC(=O)c1nnc(N2CC3(COC3)C2)cc1Nc1cccc(-c2ncn(C)n2)c1OC` [Example 53], on TYK2 (JH2 domain), the Kd is ≤ 1 nM.

In turn, `[2H]C([2H])([2H])NC(=O)c1nnc(N2CC(F)(F)C2)cc1Nc1cccc(-c2ncn(C)n2)c1OC` [Example 58] gave a Kd at TYK2 (JH2 domain) of 5 to 10 nM.

`[2H]C([2H])([2H])NC(=O)c1nnc(-n2cccn2)cc1Nc1cccc(-c2ncn(C)n2)c1OC` [Example 65] gave a Kd at TYK2 (JH2 domain) of 5 to 10 nM.

`[2H]C([2H])([2H])NC(=O)c1nnc(-n2ccc(C)n2)cc1Nc1cccc(-c2ncn(C)n2)c1OC` [Example 66]: on TYK2 (JH2 domain), the Kd is 1 to 5 nM.

`[2H]C([2H])([2H])NC(=O)c1nnc(N2CCCC2)cc1Nc1cccc(-c2ncn(C)n2)c1OC` [Example 70] showed a Kd at TYK2 (JH2 domain) of 1 to 5 nM.

As for `[2H]C([2H])([2H])NC(=O)c1nnc(C=C(C)C)cc1Nc1cccc(-c2ncn(C)n2)c1OC` [Example 73], on TYK2 (JH2 domain), the Kd fell in the range of 5 to 10 nM.

Consider `[2H]C([2H])([2H])NC(=O)c1nnc(N2CCC3(CCNCC3)C2=O)cc1Nc1cccc(-c2ncn(C)n2)c1OC` [Example 75], for which the Kd on TYK2 (JH2 domain) is ≤ 1 nM.

Take `[2H]C([2H])([2H])NC(=O)c1nnc(N2C[C@H](O)CC2=O)cc1Nc1cccc(-c2ncn(C)n2)c1OC` [Example 76]: the Kd at TYK2 (JH2 domain) fell in the range of 1 to 5 nM.

As for `[2H]C([2H])([2H])NC(=O)c1nnc(N2CCN(C3CCC3O)C2=O)cc1Nc1cccc(-c2ncn(C)n2)c1OC` (stereo not drawn) [Example 81], the Kd on TYK2 (JH2 domain) was ≤ 1 nM.

With `[2H]C([2H])([2H])NC(=O)c1nnc(N2CCN(C(C)C(F)(F)F)C2=O)cc1Nc1cccc(-c2ncn(C)n2)c1OC` (stereo not drawn) [Example 83], at TYK2 (JH2 domain), the Kd was ≤ 1 nM.

As to `[2H]C([2H])([2H])NC(=O)c1nnc(N2CCN(CC(C)(C)O)C2=O)cc1Nc1cccc(-c2ncn(C)n2)c1OC` [Example 90], the Kd on TYK2 (JH2 domain) is ≤ 1 nM.

On to `[2H]C([2H])([2H])NC(=O)c1nnc(N2CCN(C(CO)C(C)C)C2=O)cc1Nc1cccc(-c2ncn(C)n2)c1OC` (stereo not drawn) [Example 92], for which, on TYK2 (JH2 domain), the Kd was ≤ 1 nM.

As for `[2H]C([2H])([2H])NC(=O)c1nnc(N2CCN(CCN(CC)CC)C2=O)cc1Nc1cccc(-c2ncn(C)n2)c1OC` [Example 93], the Kd on TYK2 (JH2 domain) is ≤ 1 nM.

Turning to `[2H]C([2H])([2H])NC(=O)c1nnc(N2CCN(C(C)COC)C2=O)cc1Nc1cccc(-c2ncn(C)n2)c1OC` (stereo not drawn) [Example 97], on TYK2 (JH2 domain), the Kd was ≤ 1 nM.

For the compound `[2H]C([2H])([2H])NC(=O)c1nnc(N2CCN(C3CC(C)(C)C3)C2=O)cc1Nc1cccc(-c2ncn(C)n2)c1OC` [Example 101], on TYK2 (JH2 domain), the Kd was ≤ 1 nM.

Turning to `[2H]C([2H])([2H])NC(=O)c1nnc(N2CCN(C(CC)CC)C2=O)cc1Nc1cccc(-c2ncn(C)n2)c1OC` [Example 102], the Kd at TYK2 (JH2 domain) was ≤ 1 nM.

At TYK2 (JH2 domain), `Cn1cnc(-c2cccc3c2OCCOCCOc2nnccc2N3)n1` [Example 104] yielded a Kd of 5 to 10 nM.

For `COc1c(Nc2cc(Nc3cc(C)ccn3)ncc2C(=O)C2CC2)cccc1-c1ncn(C)n1` [Example 107], in assay [1] (human PBMC, INFα 5000 units/ml), the IC50 is < 100 nM.

For `COc1c(Nc2cc(Nc3cccnn3)ncc2C(=O)C2CC2)cccc1-c1ncn(C)n1` [Example 109], the IC50 in assay [1] (human PBMC, INFα 5000 units/ml) was < 100 nM.

For the compound `COc1c(Nc2cc(Nc3ccc(N4CCOCC4)cn3)ncc2C(=O)C2CC2)cccc1-c1ncn(C)n1` [Example 110], the IC50 in assay [1] (human PBMC, INFα 5000 units/ml) was < 100 nM.

For the compound `COc1c(Nc2cc(Nc3cc(C)nc(C)n3)ncc2C(=O)C2CC2)cccc1-c1ncn(C)n1` [Example 111], in assay [1] (human PBMC, INFα 5000 units/ml), the IC50 was < 100 nM.

As to `COc1c(Nc2cc(Nc3cccc(C)n3)ncc2C(=O)C2CC2)cccc1-c1ncn(C)n1` [Example 112], the IC50 in assay [1] (human PBMC, INFα 5000 units/ml) is < 100 nM.

`COc1c(Nc2cc(Nc3ccc(C)nn3)ncc2C(=O)C2CC2)cccc1-c1ncn(C)n1` [Example 113]: the IC50 in assay [1] (human PBMC, INFα 5000 units/ml) is < 100 nM.

As for `CCC(=O)c1cnc(NC(=O)N2CCC2)cc1Nc1cccc(-c2ncn(C)n2)c1OC` [Example 114], the IC50 in assay [1] (human PBMC, INFα 5000 units/ml) is < 100 nM.

In the case of `CCC(=O)c1cnc(N2CCN(C(C)C)C2=O)cc1Nc1cccc(-c2ncn(C)n2)c1OC` [Example 115], the IC50 in assay [1] (human PBMC, INFα 5000 units/ml) is < 100 nM.

With `CCC(=O)c1cnc(NC(=O)C2CC2)cc1Nc1cccc(-c2ncn(C)n2)c1OC` [Example 116], the IC50 in assay [1] (human PBMC, INFα 5000 units/ml) was < 100 nM.

For `COc1c(Nc2cc(N[S@+]([O-])C(C)(C)C)ncc2C(=O)C2CC2)cccc1-c1ncn(C)n1` [Example 118], at TYK2 (JH2 domain), the Kd is > 10 nM.

As for `COc1c(Nc2cc(Nc3ncccc3F)ncc2C(=O)C2CC2)cccc1-c1ncn(C)n1` [Example 119], in assay [1] (human PBMC, INFα 5000 units/ml), the IC50 is < 100 nM.

For `COc1c(Nc2cc(Nc3ccc(C(C)(C)O)c(F)n3)ncc2C(=O)C2CC2)cccc1-c1ncn(C)n1` [Example 120], the IC50 in assay [1] (human PBMC, INFα 5000 units/ml) is < 100 nM.

In the case of `COc1c(Nc2cc(NC(=O)NC(C)C)ncc2C(=O)C2CC2)cccc1-c1ncn(C)n1` [Example 121], the IC50 in assay [1] (human PBMC, INFα 5000 units/ml) was < 100 nM.

With `COc1c(Nc2cc(Nc3ccc(C(C)(C)O)cn3)ncc2C(=O)C2CC2)cccc1-c1ncn(C)n1` [Example 122], the IC50 in assay [1] (human PBMC, INFα 5000 units/ml) was < 100 nM.

On to `COc1c(Nc2cc(N[S@@+]([O-])C(C)(C)C)ncc2C(=O)C2CC2)cccc1-c1ncn(C)n1` [Example 123], for which the dissociation constant Kd at TYK2 (JH2 domain) was > 10 nM.

In the case of `COc1c(Nc2cc(Nc3ccc(OC4CCOC4)cn3)ncc2C(=O)C2CC2)cccc1-c1ncn(C)n1` (stereo not drawn) [Example 124], in assay [1] (human PBMC, INFα 5000 units/ml), the IC50 was < 100 nM.

`CS(=O)(=O)c1cccnc1Nc1cc(Nc2cccnn2)ncc1C(=O)C1CC1` [Example 125]: in assay [1] (human PBMC, INFα 5000 units/ml), the IC50 was < 100 nM.

Regarding `[2H]C([2H])([2H])Oc1c(Nc2cc(NC(=O)C3CC3)ncc2C(=O)C2CC2)cccc1-c1ncn(C([2H])([2H])[2H])n1` [Example 127], the IC50 in assay [1] (Homo sapiens, PBMC) was < 100 nM.

As to `COc1c(Nc2cc(N[S+]([O-])C(C)(C)C)ncc2C(=O)C2CC2)cccc1-c1ncn(C)n1` (stereo not drawn) [Example 128], the IC50 in assay [1] (Homo sapiens, PBMC) fell in the range of 1000 to 10000 nM.

`CNC(=O)c1nnc(NC(=O)N2CC(C)C2)cc1Nc1cccc(-c2ncn(C)n2)c1OC` [Example 129]: in assay [1] (human PBMC, INFα 5000 units/ml), the IC50 is < 100 nM.

With `COc1c(Nc2cc(NC(=O)C3CC3F)ncc2C(=O)C2CC2)cccc1-c1ncn(C)n1` (stereo not drawn) [Example 130], the IC50 in assay [1] (human PBMC, INFα 5000 units/ml) was < 100 nM.

Take `COc1c(-c2ncn(C)n2)ccnc1Nc1cc(Nc2ccc(C(C)(C)O)c(F)n2)ncc1C(=O)C1CC1` [Example 131]: the IC50 in assay [1] (human PBMC, INFα 5000 units/ml) is < 100 nM.

`COc1c(Nc2cc(Nc3cc(C)n(C)n3)ncc2C(=O)C2CC2)cccc1-c1ncn(C)n1` [Example 132]: the IC50 in assay [1] (human PBMC, INFα 5000 units/ml) was < 100 nM.

Regarding `COc1c(Nc2cc(NC(=O)N3CC(C)(C)C3)ncc2C(=O)C2CC2)cccc1-c1ncn(C)n1` [Example 133], the IC50 in assay [1] (human PBMC, INFα 5000 units/ml) is < 100 nM.

For `COc1c(Nc2cc(Nc3nccc(=O)[nH]3)ncc2C(=O)C2CC2)cccc1-c1ncn(C)n1` [Example 135], the IC50 in assay [1] (human PBMC, INFα 5000 units/ml) was 1000 to 10000 nM.

Regarding `COc1c(Nc2cc(Nc3cc(C#N)ccn3)ncc2C(=O)C2CC2)cccc1-c1ncn(C)n1` [Example 136], the IC50 in assay [1] (human PBMC, INFα 5000 units/ml) is < 100 nM.

As to `CS(=O)(=O)c1cccnc1Nc1cc(Nc2ccccn2)ncc1C(=O)C1CC1` [Example 137], the IC50 in assay [1] (human PBMC, INFα 5000 units/ml) was < 100 nM.

As for `COc1c(Nc2cc(Nc3ccn(C)n3)ncc2C(=O)C2CC2)cccc1-c1ncn(C)n1` [Example 138], in assay [1] (human PBMC, INFα 5000 units/ml), the IC50 was < 100 nM.

A word on the Kd: it is the constant that tells how readily two partners part at equilibrium. Low values mean tighter binding, high ones weaker binding. The IC50 is the concentration at which inhibition is half-maximal.
